Experimental data published in US20230117592A1 (SRI International, priority 2019, published 2023).
Values joined by “and” are separate entries in the source; they are usually repeats but may differ in a detail not shown here. Equal values may be shown once. Read-outs that look alike come from different tables or passages of the source.

Key:
[1] = biological target: T1, 5-LOX (Homo sapiens, UniProt P09917); assay: 5-LOX fluorescent assay (in vitro lipoxygenase inhibition); format: biochemical; details: recombinant 5-LOX cell lysate, 20 μM AA, DHR123 fluorescence; several values in a cell = repeat determinations; read-out: IC50 (μM) values for in vitro lipoxygenase inhibition, 5-LOX
T1 sequence (P09917 1-674): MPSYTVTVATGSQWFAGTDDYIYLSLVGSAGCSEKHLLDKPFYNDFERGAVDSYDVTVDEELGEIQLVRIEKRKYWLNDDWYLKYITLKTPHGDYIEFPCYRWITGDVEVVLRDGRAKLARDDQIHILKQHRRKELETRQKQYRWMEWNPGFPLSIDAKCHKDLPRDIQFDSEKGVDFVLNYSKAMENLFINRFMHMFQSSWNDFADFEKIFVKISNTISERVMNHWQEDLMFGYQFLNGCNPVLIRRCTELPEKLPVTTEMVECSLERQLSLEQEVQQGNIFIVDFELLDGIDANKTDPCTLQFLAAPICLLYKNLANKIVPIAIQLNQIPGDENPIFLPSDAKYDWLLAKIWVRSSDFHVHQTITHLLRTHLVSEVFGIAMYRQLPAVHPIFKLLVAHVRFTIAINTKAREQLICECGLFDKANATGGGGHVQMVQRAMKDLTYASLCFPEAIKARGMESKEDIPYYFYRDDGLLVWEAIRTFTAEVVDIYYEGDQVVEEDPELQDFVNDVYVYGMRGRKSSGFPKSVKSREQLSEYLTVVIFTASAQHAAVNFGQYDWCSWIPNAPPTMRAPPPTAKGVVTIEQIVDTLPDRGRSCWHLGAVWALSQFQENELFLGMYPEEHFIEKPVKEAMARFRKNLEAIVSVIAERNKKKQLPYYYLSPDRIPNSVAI
Summary of the method: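 Recombinant human 5-LOX cell lysate pre-incubated 15 min with inhibitor in 50 mM Tris pH 7.5, 0.1 mM EDTA, 0.3 mM CaCl2. Reaction started with 20 μM arachidonic acid plus 100 μM ATP, with 1 μM DHR123 as fluorescent probe. IC50 from percent inhibition per dose via 4-parameter logistic or sigmoidal dose-response fit.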

[2] = biological target: T2, 12-LOX (Homo sapiens, UniProt P18054); assay: 12-LOX fluorescent assay (in vitro lipoxygenase inhibition); format: biochemical
T2 sequence (P18054 1-663): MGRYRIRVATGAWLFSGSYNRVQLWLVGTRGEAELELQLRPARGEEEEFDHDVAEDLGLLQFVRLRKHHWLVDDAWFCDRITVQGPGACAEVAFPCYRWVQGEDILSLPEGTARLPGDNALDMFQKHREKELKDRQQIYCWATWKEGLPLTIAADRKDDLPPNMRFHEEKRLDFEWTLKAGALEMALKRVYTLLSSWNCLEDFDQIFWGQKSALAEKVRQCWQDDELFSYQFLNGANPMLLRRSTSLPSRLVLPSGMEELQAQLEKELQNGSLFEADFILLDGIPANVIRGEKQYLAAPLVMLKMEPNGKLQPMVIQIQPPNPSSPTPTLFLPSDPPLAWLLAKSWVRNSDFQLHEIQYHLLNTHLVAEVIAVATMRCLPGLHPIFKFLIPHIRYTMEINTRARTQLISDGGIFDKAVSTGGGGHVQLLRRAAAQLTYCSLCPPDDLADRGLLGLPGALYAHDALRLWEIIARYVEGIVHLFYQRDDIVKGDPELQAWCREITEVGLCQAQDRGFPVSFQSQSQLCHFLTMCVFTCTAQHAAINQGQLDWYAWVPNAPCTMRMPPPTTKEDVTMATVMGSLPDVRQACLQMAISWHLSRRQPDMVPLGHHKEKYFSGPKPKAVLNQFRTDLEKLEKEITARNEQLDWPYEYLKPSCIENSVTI
Summary of the method: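 Fluorescent assay in 50 mM Tris pH 7.5, 0.05% Tween-20, with 100 nM recombinant 12-LOX preincubated 15 min with inhibitor. Reaction was started with 20 μM arachidonic acid substrate and 1 μM DHR123. Percent inhibition per dose was fitted by 4-parameter logistic or sigmoidal dose-response for IC50.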

[3] = 100 nM recombinant 12-LOX, 20 μM AA, DHR123 fluorescence, several values in a cell = repeat determinations, read-out: IC50 (μM) values for in vitro lipoxygenase inhibition, 12-LOX

Row | IC50 [1] | IC50 [2, 3] | SMILES | IC50 [2]
1 | 0.02 µM and 0.03 µM | 0.01 µM | c1ncn(CCCNc2ccc(NCC3CCCCC3)cc2)n1 [SS20308-0240-01, N^1-(3-(1H-1,2,4-triazol-1-yl)propyl)-N^4-(cyclohexylmethyl)benzene-1,4-diamine] | –
2 | 1.09 µM | 0.36 µM | c1cc(NCC2(Cn3cncn3)COC2)cc(NC2CCCCC2)c1 [SS20308-0241-01, N^1-((3-((1H-1,2,4-triazol-1-yl)methyl)oxetan-3-yl)methyl)-N^3-cyclohexylbenzene-1,3-diamine] | –
3 | 0.09 µM | 0.05 µM | c1ncn(CC2(CNc3ccc(NCC4CCCCC4)cc3)COC2)n1 [SS20308-0242-01, N^1-((3-((1H-1,2,4-triazol-1-yl)methyl)oxetan-3-yl)methyl)-N^4-(cyclohexylmethyl)benzene-1,4-diamine] | –
4 | 1.19 µM | 0.51 µM | FC(F)(F)C(Nc1ccc(NCCn2cncn2)cn1)c1ccccc1 (stereo not shown) [SS20308-0245-01, N^5-(2-(1H-1,2,4-triazol-1-yl)ethyl)-N^2-(2,2,2-trifluoro-1-phenylethyl)pyridine-2,5-diamine] | –
5 | 0.51 µM | 0.08 µM | Fc1ccc(CNc2ccc(NCCn3cncn3)cn2)cc1 [SS20308-0246-01, N^5-(2-(1H-1,2,4-triazol-1-yl)ethyl)-N^2-(4-fluorobenzyl)pyridine-2,5-diamine] | –
6 | 0.63 µM | 0.13 µM | FC1(F)CCC(CNc2ccc(NCCn3cncn3)cn2)CC1 [SS20308-0247-01, N^5-(2-(1H-1,2,4-triazol-1-yl)ethyl)-N^2-((4,4-difluorocyclohexyl)methyl)pyridine-2,5-diamine] | –
7 | 0.63 µM | 0.1 µM | Fc1ccc(Nc2ccc(NCCn3cncn3)cn2)cc1 [SS20308-0248-01, N^5-(2-(1H-1,2,4-triazol-1-yl)ethyl)-N^2-(4-fluorophenyl)pyridine-2,5-diamine] | –
8 | 1.59 µM | 0.37 µM | Fc1ccc(CNc2cccc(NCCn3cncn3)n2)cc1 [SS20308-0249-01, N^2-(2-(1H-1,2,4-triazol-1-yl)ethyl)-N^6-(4-fluorobenzyl)pyridine-2,6-diamine] | –
9 | 1.26 µM | 0.32 µM | FC1(F)CCC(CNc2cccc(NCCn3cncn3)n2)CC1 [SS20308-0250-01, N^2-(2-(1H-1,2,4-triazol-1-yl)ethyl)-N^6-((4,4-difluorocyclohexyl)methyl)pyridine-2,6-diamine] | –
10 | 1.09 µM | 0.26 µM | CN(CCn1cncn1)c1cccc(Nc2ccc(F)cc2)c1 [SS20308-0252-01, N^1-(2-(1H-1,2,4-triazol-1-yl)ethyl)-N^3-(4-fluorophenyl)-N^1-methylbenzene-1,3-diamine] | –
11 | 0.31 µM | 0.29 µM | CN(C)CCCc1c(NCc2ccc(F)cc2)cccc1-c1cccc2c1NCC2 [SS20308-0253-01, 2-(3-(dimethylamino)propyl)-N-(4-fluorobenzyl)-3-(indolin-7-yl)aniline] | –
12 | 0.22 µM and 0.12 µM | 0.06 µM and 0.03 µM | FC1(F)CCC(Nc2ccc(NCC3(Cn4cncn4)COC3)cc2)CC1 [SS20308-0263-01, N^1-((3-((1H-1,2,4-triazol-1-yl)methyl)oxetan-3-yl)methyl)-N^4-(4,4-difluorocyclohexyl) benzene-1,4-diamine] | –
13 | 0.27 µM | 0.05 µM | Fc1c(Nc2ccccc2)ccc2c1CCN2CCn1cncn1 [SS20308-0264-01, 1-(2-(1H-1,2,4-triazol-1-yl)ethyl)-4-fluoro-N-phenylindolin-5-amine] | –
14 | 0.22 µM and 0.28 µM and 0.11 µM and 0.26 µM | 30 nM and 80 nM and 60 nM (2×) | Cc1cc(Nc2ccc(F)cc2Cl)ccc1NCC1(Cn2cncn2)COC1 [SS20308-0272-01, N1-((3-((1H-1,2,4-triazol-1-yl)methyl)oxetan-3-yl)methyl)-N4-(2-chloro-4-fluorophenyl)-2-methylbenzene-1,4-diamine] | –
15 | 0.26 µM and 0.1 µM | 0.05 µM and 0.04 µM | CC1(C)CC(Nc2ccc(NCCn3cncn3)cc2)c2ccccc21 (stereo not shown) [SS20308-0275-01, N^1-(2-(1H-1,2,4-triazol-1-yl)ethyl)-N^4-(3,3-dimethyl-2,3-dihydro-1H-inden-1-yl)benzene-1,4-diamine] | –
16 | 0.64 µM | 0.28 µM | Fc1ccc(Nc2ccc(NCC3(Cn4cncn4)COC3)c(C(F)(F)F)c2)c(Cl)c1 [SS20308-0279-01, N^1-((3-((1H-1,2,4-triazol-1-yl)methyl)oxetan-3-yl)methyl)-N^4-(2-chloro-4-fluorophenyl)-2-(trifluoromethyl)benzene-1,4-diamine] | –
17 | 0.25 µM and 0.61 µM | 0.07 µM and 0.15 µM | Cc1cccc(Nc2ccc(NCC3(Cn4cncn4)COC3)c(C)c2)n1 [SS20308-0289-01, N^1-((3-((1H-1,2,4-triazol-1-yl)methyl)oxetan-3-yl)methyl)-2-methyl-N^4-(6-methylpyridin-2-yl)benzene-1,4-diamine] | –
18 | 0.08 µM | 0.06 µM | Fc1ccc(Nc2ccc(NCC3(Cn4cncn4)COC3)c(C(F)(F)F)c2)cc1 [SS20308-0296-01, N^1-((3-((1H-1,2,4-triazol-1-yl)methyl)oxetan-3-yl)methyl)-N^4-(4-fluorophenyl)-2-(trifluoromethyl)benzene-1,4-diamine] | –
19 | 0.25 µM | 0.21 µM | CN(C)CCCNc1ccc(NC(c2ccccc2)C(F)(F)F)cc1F (stereo not shown) [SS20308-0302-01, N^1-(3-(dimethylamino)propyl)-2-fluoro-N^4-(2,2,2-trifluoro-1-phenylethyl)benzene-1,4-diamine] | –
20 | 0.05 µM and 0.06 µM | 0.02 µM and 0.06 µM | Cc1cc(Nc2ccc(F)c(Cl)c2)ccc1NCC1(Cn2cncn2)COC1 [SS20308-0307-01, N^1-((3-((1H-1,2,4-triazol-1-yl)methyl)oxetan-3-yl)methyl)-N^4-(3-chloro-4-fluorophenyl)-2-methylbenzene-1,4-diamine] | –
21 | 0.04 µM and 0.03 µM and 0.05 µM and 0.09 µM | 20 nM (2×) and 50 nM and 60 nM | Cc1cc(Nc2ccc(Cl)c(F)c2)ccc1NCC1(Cn2cncn2)COC1 [SS20308-0308-01, N^1-((3-((1H-1,2,4-triazol-1-yl)methyl)oxetan-3-yl)methyl)-N^4-(4-chloro-3-fluorophenyl)-2-methylbenzene-1,4-diamine] | –
22 | 0.09 µM and 0.12 µM | 0.04 µM and 0.08 µM | Cc1cc(Nc2ccc(F)cc2Cl)ccc1NCC1(CN2CCOCC2)COC1 [SS20308-0309-01, N^4-(2-chloro-4-fluorophenyl)-2-methyl-N^1-((3-(morpholinomethyl)oxetan-3-yl)methyl) benzene-1,4-diamine] | –
23 | 0.35 µM | 0.11 µM | Fc1cc(Nc2ccccc2Cl)ccc1NCC1(Cn2cncn2)COC1 [SS20308-0313-01, N^1-((3-((1H-1,2,4-triazol-1-yl)methyl)oxetan-3-yl)methyl)-N^4-(2-chlorophenyl)-2-fluorobenzene-1,4-diamine] | –
24 | 0.07 µM | 0.06 µM | FC(F)(F)C(Nc1ccc(NCCCN2CCOCC2)c(C2CCOCC2)c1)c1ccccc1 (stereo not shown) [SS20308-0315-01, N^1-(3-morpholinopropyl)-2-(tetrahydro-2H-pyran-4-yl)-N^4-(2,2,2-trifluoro-1-phenylethyl)benzene-1,4-diamine] | –
25 | 0.07 µM | 0.03 µM | Fc1ccc(Nc2ccc(NCCCN3CCOCC3)c(C(F)(F)F)c2)cc1 [SS20308-0316-01, N^4-(4-fluorophenyl)-N^1-(3-morpholinopropyl)-2-(trifluoromethyl)benzene-1,4-diamine] | –

Row | SMILES | IC50 [1] | IC50 [2, 3] | IC50 [2]
26 | c1ncn(CCCNc2ccc(NC3CCCCC3)cc2)n1 [SS20308-0239-01, N^1-(3-(1H-1,2,4-triazol-1-yl)propyl)-N^4-cyclohexylbenzene-1,4-diamine] | 0.04 µM and 0.07 µM | – | 0.03 µM
